Assay results taken from patent US11020360B2, “Methods, compounds, compositions and vehicles for delivering 3-amino-1-propanesulfonic acid” (Bellus Health, Inc., priority 2006, dated 2021).

Assay: Single oral, intravenous and portal administration of 3APS in rats
Assay type: in vivo, male Sprague-Dawley rats
Description: The purpose of this study was to compare the pharmacokinetic profile of 3APS following a single dose administration either orally, intravenously or into the portal vein to male Sprague-Dawley rats. The oral, intravenous and portal routes of administration were selected to determine the intestinal and hepatic first-pass effects in the rat. Three groups of 4 male Sprague-Dawley rats were assigned to receive a single dose of 250 mg/kg 3APS by different routes of administration. One group received 3APS as an IV bolus administration (in water or isotonic saline solution), one group by oral gavage (in water) and the last group via a catheter into the portal vein (in water or isotonic saline solution). Blood samples were collected for 24 hours following dose administration. Plasma concentrations of 3APS and 2-carboxyethanesulfonic acid (the major metabolite of 3APS) were determined using LC and MS/MS method.

## NCCCS(=O)(=O)O [Compound 3APS, 3-amino-1-propanesulfonic acid]
Hepatoportal versus intravenous exposure, 250 mg/kg
  metabolism of 3APS associated with hepatic first-pass: 24%
Oral 250 mg/kg
  bioavailability based on the AUC∞: about 38%
Oral versus hepatoportal exposure, 250 mg/kg
  metabolism of 3APS associated with intestinal first-pass: 43%
